Laboratory results as given in patent US20210401773A1 (priority 2020, published 2021).

Test system: COVID-19
Test: Clinical trials/studies: case reports of ye-[…] in people with COVID-19
Format: in vivo
Conditions: case 2: taken before ye-COVIDICIN; they got worse

SMILES: CCN(CCO)CCCC(C)Nc1ccnc2cc(Cl)ccc12 (stereo not shown) [Hydroxychloroquine]
- Effect on COVID-19 in patient: did not work
